Measured values taken from patent US8664391B2, “Amide compounds as boosters of antivirals” (Janssen R&D Ireland Ltd, priority 2008, dated 2014).
Like-named read-outs stand apart in the source and are kept apart here.

How the values were obtained:
[1] = Cytotoxicity in mock-infected MT4 CMV-EGFP cells; type: cell-based; conditions: human, pCC50 = -log10(CC50), read-out: Toxicity MT4 pCC50 (converted)
Text: (§1) Assay 1 &2: Antiviral Activity/Toxicity
Analogously, MT4 cells are engineered with GFP and the constitutional cytomegalovirus (CMV) promotor. This cell line is designated MT4 CMV-EGFP, and can be used for the in vitro evaluation of cytotoxicity of investigational compounds. In this cell line, GFP levels are comparably to those of infected MT4 LTR-EGFP cells. Cytotoxic investigational compounds reduce GFP levels of mock-infected MT4 CMV-EGFP cells.
Effective concentration values such as 50% effective concentration (EC50) can be determined and are usually expressed in μM. An EC50 value is defined as the concentration of test compound that reduces the fluorescence of HIV-infected cells by 50%. The 50% cytotoxic concentration (CC50 in μM) is defined as the concentration of test compound that reduces fluorescence of the mock-infected cells by 50%. The ratio of CC50 to EC50 is defined as the selectivity index (SI) and is an indication of the selectivity of the anti-HIV activity of the inhibitor. The ultimate monitoring of HIV-1 infection and cytotoxicity is done using a scanning microscope. Image analysis allows very sensitive detection of viral infection. Measurements are done before cell necrosis, which usually takes place about five days after infection, in particular measurements are performed three days after infection.
Table 2 lists pEC50 values against the wild-type HIV-1 IIIB strain as well as pCC50 values for a selected number of compounds of the invention. A pEC50 value corresponds to −log10(EC50). A pCC50 value corresponds to −log10(CC50).

CYP3A4 = molecular target: T1, CYP3A4 (Homo sapiens, UniProt P08684); experiment: CYP450 inhibition, fluorescent substrate assay, CYP3A4; type: biochemical; conditions: 10 μM test compound; for inhibition at 10 min, 10 μM: E. coli expressed CYP3A4, pH 7.4, probe DBF (1 μM), substrate DBF 1 μM, read-out: 3A4-DBF % inh.
T1 construct: host or cells: E. coli
Procedure: (§2) Assay 4: CYP450 Inhibition […] This fluorescent molecule was measured using a fluorescent plate reader (Victor2 (Wallac) or Fluoroskan (Labsystems)). Compounds inhibiting the enzymatic reaction will result in a decrease of fluorescent signal. CYP P450 enzymes were prepared in house or commercially bought and stored at −80° C. [table] The assay was performed in black 96 well Costar plates. Test compounds were added to a CYP P450 enzyme solution in the presence of an NADPH generating system. After 5 min of preincubation at 37° C., the freshly prepared, phosphate buffered (pH 7.4) substrate solution was added. Known CYP P450 inhibitors were used as positive controls, negative controls were run without CYP P450 enzyme. For final reaction mixture concentrations, see Table 6. […] Then, the reaction was stopped by the addition of 200 μl acetonitrile, and the fluorescent signal was detected. [table] […] Inhibition of TMC114 Metabolisation

CYP2C9 = CYP2C9 (Homo sapiens, UniProt P11712); experiment: CYP450 inhibition, fluorescent substrate assay, CYP2C9; type: biochemical; conditions: pH 7.4
Procedure: as §2

CYP2C19 = molecular target: T2, CYP2C19 (Homo sapiens, UniProt P33261); experiment: CYP450 inhibition, fluorescent substrate assay, CYP2C19; type: biochemical; conditions: E. coli expressed CYP2C19, pH 7.4, probe CEC (25 μM), 10 μM test compound, substrate CEC 25 μM, read-out: 2C19-CEC % inh.
T2 construct: host or cells: E. coli
Procedure: as §2

CYP2D6 = molecular target: T3, CYP2D6 (Homo sapiens, UniProt P10635); experiment: CYP450 inhibition, fluorescent substrate assay, CYP2D6; type: biochemical; conditions: E. coli expressed CYP2D6, pH 7.4, probe AMMC (3 μM), 10 μM test compound, substrate AMMC 3 μM, read-out: 2D6-AMMC % inh.
T3 construct: host or cells: E. coli
Procedure: as §2

CYP1A2 = molecular target: T4, CYP1A2 (Homo sapiens, UniProt P05177); experiment: CYP450 inhibition, fluorescent substrate assay, CYP1A2; type: biochemical; conditions: E. coli expressed CYP1A2, pH 7.4, probe CEC (5 μM), 10 μM test compound, substrate CEC 5 μM, read-out: 1A2-CEC % inh.
T4 construct: host or cells: E. coli
T4 sequence (P05177 1-516): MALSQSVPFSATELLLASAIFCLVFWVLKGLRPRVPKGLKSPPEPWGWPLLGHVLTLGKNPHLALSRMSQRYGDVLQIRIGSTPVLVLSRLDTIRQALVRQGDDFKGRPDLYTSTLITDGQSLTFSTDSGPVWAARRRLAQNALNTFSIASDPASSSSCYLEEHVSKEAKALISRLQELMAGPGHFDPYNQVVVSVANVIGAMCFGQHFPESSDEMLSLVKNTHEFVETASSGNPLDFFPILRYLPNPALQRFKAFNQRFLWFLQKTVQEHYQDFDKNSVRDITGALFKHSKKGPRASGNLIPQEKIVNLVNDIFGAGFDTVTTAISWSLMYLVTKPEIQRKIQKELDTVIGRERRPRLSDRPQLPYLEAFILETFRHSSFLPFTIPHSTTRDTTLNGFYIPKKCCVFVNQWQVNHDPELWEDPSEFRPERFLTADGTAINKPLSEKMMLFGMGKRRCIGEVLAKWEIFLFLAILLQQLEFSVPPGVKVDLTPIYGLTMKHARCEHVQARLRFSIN
Procedure: as §2

[2] = system: wild-type HIV-1 IIIB strain; experiment: Antiviral activity in MT4 LTR-EGFP cellular assay; type: cell-based; conditions: Human immunodeficiency virus 1, 72 h; wild-type HIV-1 IIIB, MT4 LTR-EGFP cells, three days after infection; pEC50 = -log10(EC50); read-out: Antiviral Activity IIIB pEC50 (converted)
Procedure: as §1
The compounds of the present invention were tested for antiviral activity in a cellular assay, which was performed according to the following procedure.
The human T-cell line MT4 is engineered with Green Fluorescent Protein (GFP) and an HIV-specific promoter, HIV-1 long terminal repeat (LTR). This cell line is designated MT4 LTR-EGFP, and can be used for the in vitro evaluation of anti-HIV activity of investigational compounds. In HIV-1 infected cells, the Tat protein is produced which upregulates the LTR promotor and finally leads to stimulation of the GFP reporter production, allowing measuring ongoing HIV-infection fluorometrically.
The ratio of CC50 to EC50 is defined as the selectivity index (SI) and is an indication of the selectivity of the anti-HIV activity of the inhibitor. The ultimate monitoring of HIV-1 infection and cytotoxicity is done using a scanning microscope. Image analysis allows very sensitive detection of viral infection. Measurements are done before cell necrosis, which usually takes place about five days after infection, in particular measurements are performed three days after infection.
A pEC50 value corresponds to −log10(EC50). A pCC50 value corresponds to −log10(CC50).

in vitro = in vitro ADME, human; conditions: human, pH 7.4
Text: Assay 3: Metabolic Stability of Test Compounds (HLM15′)
Sub-cellular tissue preparations are made according to Gorrod et al. (Xenobiotica, 5, pp. 453-462 (1975)) by centrifugal separation after mechanical homogenization of tissue. Human liver tissue is rinsed in ice-cold 0.1 M Tris-HCl (pH 7.4) buffer to wash excess blood. Tissue is then blotted dry, weighed and chopped coarsely using surgical scissors. The tissue pieces are homogenized in 3 volumes of ice-cold 0.1 M phosphate buffer (pH 7.4) using either a Potter-S (Braun, Italy) equipped with a Teflon pestle or a Sorvall Omni-Mix homogenizer, for 7×10 sec. In both cases, the vessel is kept in/on ice during the homogenization process. Tissue homogenates are centrifuged at 9000×g for 20 min at 4° C. using a Sorvall centrifuge or Beckman Ultracentrifuge. The resulting supernatant can be stored at −80° C. and is designated ‘S9’. The S9 fraction is centrifuged at 100,000×g for 60 min at 4° C. using a Beckman ultracentrifuge. The resulting supernatant is carefully aspirated, aliquoted and designated ‘cytosol’. The pellet is re-suspended in 0.1 M phosphate buffer (pH 7.4) in a final volume of 1 ml per 0.5 g original tissue weight and designated ‘microsomes’. All sub-cellular fractions are aliquoted, immediately frozen in liquid nitrogen and stored at −80° C. until use.
Heat-inactivated (10 min at 95° C.) ‘S9’ or microsomes were used for blank experiments. Reaction mixtures were incubated at 37° C. for 5 min, after which the reaction was started by the addition of 0.8 mM β-NADP. The reaction was incubated for 0 or 15 min. Next, the reaction was stopped by addition of 2 volumes of DMSO (or acetonitrile). Samples were centrifuged (10 min, 900×g) and analyzed by LC-MS.

[3] = E. coli expressed CYP3A4, pH 7.4, probe BFC (150 μM), substrate BFC 150 μM, read-out: 3A4-BFC % inh.
[4] = E. coli expressed CYP3A4, pH 7.4, probe BQ (60 μM), substrate BQ 60 μM, read-out: 3A4-BQ % inh.

CYP2C9, sequence (P11712 whole entry): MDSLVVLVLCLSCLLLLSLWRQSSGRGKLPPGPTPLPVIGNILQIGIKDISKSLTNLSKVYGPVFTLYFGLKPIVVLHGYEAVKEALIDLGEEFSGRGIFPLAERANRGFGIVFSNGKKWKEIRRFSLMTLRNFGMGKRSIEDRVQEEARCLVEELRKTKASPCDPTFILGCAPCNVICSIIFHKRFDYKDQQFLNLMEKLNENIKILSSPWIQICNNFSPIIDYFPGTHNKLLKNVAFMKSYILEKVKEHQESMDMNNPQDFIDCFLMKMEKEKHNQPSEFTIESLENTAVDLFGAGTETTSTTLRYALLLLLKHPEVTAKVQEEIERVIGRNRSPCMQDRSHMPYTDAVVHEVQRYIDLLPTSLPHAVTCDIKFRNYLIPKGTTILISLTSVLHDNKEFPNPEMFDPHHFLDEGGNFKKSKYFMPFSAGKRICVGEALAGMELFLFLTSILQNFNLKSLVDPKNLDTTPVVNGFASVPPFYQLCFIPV
T2 sequence (P33261 whole entry): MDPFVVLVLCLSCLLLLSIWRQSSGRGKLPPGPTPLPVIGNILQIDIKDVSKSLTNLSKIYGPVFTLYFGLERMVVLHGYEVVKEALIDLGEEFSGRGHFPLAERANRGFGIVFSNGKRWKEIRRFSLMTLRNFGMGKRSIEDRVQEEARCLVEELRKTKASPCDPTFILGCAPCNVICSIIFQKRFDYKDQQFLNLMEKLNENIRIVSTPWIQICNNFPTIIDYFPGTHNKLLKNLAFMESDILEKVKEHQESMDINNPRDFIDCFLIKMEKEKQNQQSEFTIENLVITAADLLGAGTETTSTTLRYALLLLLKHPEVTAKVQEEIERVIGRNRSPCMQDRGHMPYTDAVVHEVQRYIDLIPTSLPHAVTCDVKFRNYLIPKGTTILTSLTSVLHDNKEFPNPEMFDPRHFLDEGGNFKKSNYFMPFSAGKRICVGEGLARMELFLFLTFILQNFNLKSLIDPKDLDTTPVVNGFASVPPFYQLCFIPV
T1 sequence (P08684 whole entry): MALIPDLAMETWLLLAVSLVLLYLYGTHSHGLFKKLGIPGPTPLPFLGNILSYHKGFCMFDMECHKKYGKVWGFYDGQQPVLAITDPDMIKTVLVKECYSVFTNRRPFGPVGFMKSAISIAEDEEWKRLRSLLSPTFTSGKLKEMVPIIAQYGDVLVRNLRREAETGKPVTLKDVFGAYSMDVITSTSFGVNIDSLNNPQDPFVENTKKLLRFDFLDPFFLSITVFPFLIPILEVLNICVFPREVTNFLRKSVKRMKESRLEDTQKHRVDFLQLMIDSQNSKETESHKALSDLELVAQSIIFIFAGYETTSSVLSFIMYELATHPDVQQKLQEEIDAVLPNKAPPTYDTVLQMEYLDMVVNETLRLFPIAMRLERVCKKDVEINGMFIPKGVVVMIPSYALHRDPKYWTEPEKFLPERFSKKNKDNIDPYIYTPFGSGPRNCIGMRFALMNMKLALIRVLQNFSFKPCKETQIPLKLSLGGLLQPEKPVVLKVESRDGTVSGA
T3 sequence (P10635 whole entry): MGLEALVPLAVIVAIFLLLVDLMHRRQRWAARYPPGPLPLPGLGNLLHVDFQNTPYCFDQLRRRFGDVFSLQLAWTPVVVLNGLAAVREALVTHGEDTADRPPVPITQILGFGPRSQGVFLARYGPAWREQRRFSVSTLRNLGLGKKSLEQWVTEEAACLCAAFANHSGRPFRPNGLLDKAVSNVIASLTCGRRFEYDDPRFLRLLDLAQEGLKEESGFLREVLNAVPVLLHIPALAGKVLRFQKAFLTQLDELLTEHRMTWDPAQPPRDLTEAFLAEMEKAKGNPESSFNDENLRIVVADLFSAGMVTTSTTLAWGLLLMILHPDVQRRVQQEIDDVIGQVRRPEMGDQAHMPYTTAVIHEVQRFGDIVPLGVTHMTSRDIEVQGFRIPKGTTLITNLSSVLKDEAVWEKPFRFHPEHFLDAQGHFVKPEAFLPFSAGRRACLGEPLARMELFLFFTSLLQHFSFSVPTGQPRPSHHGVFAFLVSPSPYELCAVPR

| Compound | CC50 at 3 days [1] [µM] | inhibition at 30 min, 10 μM (CYP3A4; [3]) [%] | inhibition at 30 min, 10 μM (CYP3A4; [4]) [%] | inhibition at 10 min, 10 μM (CYP3A4) [%] | inhibition at 30 min, 10 μM (CYP2C9) [%] | inhibition at 30 min, 10 μM (CYP2C19) [%] | inhibition at 45 min, 10 μM (CYP2D6) [%] | inhibition at 15 min, 10 μM (CYP1A2) [%] | EC50 [2] [µM] | recovery at 15 min, 5 μM (in vitro) [%] |
| --- | --- | --- | --- | --- | --- | --- | --- | --- | --- | --- |
| CC(C)(C)CN(C[C@@H](O)[C@H](Cc1ccccc1)NC(=O)OCc1cncs1)C(=O)c1ccncc1 [Compound C22] | > 100 | 93 | 74 | 89 | 69 | 60 | 62 | 0 | > 100 | 77 |
| CC(C)CN(C[C@@H](O)[C@H](Cc1ccccc1)NC(=O)OCc1cncs1)C(=O)C1CCC(F)(F)CC1 [Compound C23] | 55 | 94 | 73 | 92 | 89 | 77 | 65 | 22 | 51.3 | 72 |
| CC(C)CN(C[C@@H](O)[C@H](Cc1ccccc1)NC(=O)OCc1cncs1)C(=O)CCc1cncs1 [Compound C24] | > 100 | 101 | 82 | 89 | 92 | 86 | 96 | 13 | 97.7 | 56 |
| CC(C)CN(C[C@@H](O)[C@H](Cc1ccccc1)NC(=O)OCc1cncs1)C(=O)OCc1cncs1 [Compound C25] | 77.6 | 100 | 79 | 89 | 95 | 97 | 91 | 25 | 69.2 | 63 |
